Data as given in paper PMC7285181 (Pharmaceutics, 2020).
Structures can show the parent of a compound that is named as a salt. Marks after values point to notes of the source that are not given here.

System: compound 48/80-induced systemic anaphylaxis-like reactions in mice
Experiment: Compound 48/80-induced systemic anaphylaxis-like reactions in mice (mortality)
Type: in vivo
Conditions: n = 8, oral 1 h before i.p. compound 48/80 (8 mg/kg), mortality within 1 h
Description: Five groups each of 8 male albino mice were used in this experiment. Mice were housed 4 per cage and were maintained at room temperature (25 ± 0.5 °C). All experiments were performed in compliance with the guidelines approved by the ethics committee of Faculty of Pharmacy, The British University in Egypt (approval number Ex-1904). The mice in the first group were administered phosphate buffer saline orally (negative control group), while the second group were administered phosphate buffer saline 1 hour prior to an intraperitoneal injection of 8 mg/kg of the mast cell degranulator compound 48/80 which induces systemic anaphylaxis-like reactions in mice (positive control group). […] The mortality was monitored for 1 h after induction of anaphylactic shock. After the mortality test, blood was obtained from the heart of each mouse by cardiac puncture.

**Q.** For `CC(C)(C(=O)O)c1ccc(C(O)CCCN2CCC(C(O)(c3ccccc3)c3ccccc3)CC2)cc1` (stereo not shown) [FEX powder, Fexofenadine HCl], which Mortality is on record?
**A.** 62.5% *
